Assay results as given in patent US9353091B2 (priority 2009, dated 2016).

Key:
[1] = target: T1, HCV polymerase 1A (Δ21 NS5B) (Hepatitis C virus genotype 1a, UniProt P27958); test: HCV Polymerase Inhibition Assay (1a); type: biochemical
T1 construct: 20 to 50 nM Δ21 NS5B
Protocol: (§1) Reaction volume was 50 μL. The reaction was terminated by the addition of 1 volume of 4 mM spermine in 10 mM Tris-Cl pH 8.0, 1 mM EDTA. After incubation for at least 15 minutes at room temperature, the precipitated RNA was captured by filtering through a GF/B filter (Millipore) in a 96 well format. The filter plate was washed three times with 200 μL, each of 2 mM spermine, 10 mM Tris-Cl pH 8.0, 1 mM EDTA, and 2 times with ethanol. After air-drying, 30 μL, of Microscint 20 scintillation cocktail (Packard) was added to each well, and the retained cpm were determined by scintillation counting. […] Retained cpm were plotted vs. inhibitor concentration and fit to equation 1 using non-linear regression (ref. 1) to obtain the IC50 values: Retained cpm=A[sqrt{(IC50+It−Et)^2+4*IC50*Et}−(IC50+It−Et)]
(§2) Ref. Morrison, J. F. and S. R. Stone. 1985. Approaches to the study and analysis of the inhibition of enzymes by slow- and tight-binding inhibitors. Comments Mol. Cell. Biophys. 2: 347-368.
(§3) The sequence of the template RNA used was: 5′-[…] […] […] […] […] […] […] […] […] […] […] […] […] […] […] […] […]-3′ (SEQ ID NO: 1)

[2] = target: T2, HCV polymerase 1B (Δ21 NS5B) (Hepatitis C virus genotype 1b, UniProt P26663); test: HCV Polymerase Inhibition Assay (1b); type: biochemical
T2 construct: 20 to 50 nM Δ21 NS5B
T2 sequence (P26663 2420-2989, stated change not applied): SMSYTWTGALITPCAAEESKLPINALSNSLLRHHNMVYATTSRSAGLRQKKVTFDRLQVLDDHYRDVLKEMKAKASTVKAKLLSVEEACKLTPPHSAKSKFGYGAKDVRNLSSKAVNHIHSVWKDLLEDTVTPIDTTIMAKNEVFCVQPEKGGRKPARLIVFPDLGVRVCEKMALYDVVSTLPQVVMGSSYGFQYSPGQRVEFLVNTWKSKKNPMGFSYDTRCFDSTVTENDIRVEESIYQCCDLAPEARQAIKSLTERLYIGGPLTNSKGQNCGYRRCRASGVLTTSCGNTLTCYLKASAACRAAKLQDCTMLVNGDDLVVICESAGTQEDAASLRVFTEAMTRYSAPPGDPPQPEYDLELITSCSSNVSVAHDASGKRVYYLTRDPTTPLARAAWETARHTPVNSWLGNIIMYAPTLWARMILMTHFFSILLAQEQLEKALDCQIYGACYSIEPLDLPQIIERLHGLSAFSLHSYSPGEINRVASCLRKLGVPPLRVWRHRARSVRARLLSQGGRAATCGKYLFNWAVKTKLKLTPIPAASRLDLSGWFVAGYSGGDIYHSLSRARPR
Protocol: as §1, §2, §3

[3] = test system: genotype 1a-H77 subgenomic replicon cell line; test: HCV Polymerase Replicon Assay (genotype 1a-H77, luciferase reporter); type: cell-based; conditions: Hepatitis C virus, 72 h, 1a-H77 replicon, three days
[4] = test system: genotype 1b-Con1 subgenomic replicon cell line; test: HCV Polymerase Replicon Assay (genotype 1b-Con1, luciferase reporter); type: cell-based; conditions: Hepatitis C virus, 72 h, 1b-Con1 replicon, three days

T1 sequence (P27958 2421-2990, stated change not applied): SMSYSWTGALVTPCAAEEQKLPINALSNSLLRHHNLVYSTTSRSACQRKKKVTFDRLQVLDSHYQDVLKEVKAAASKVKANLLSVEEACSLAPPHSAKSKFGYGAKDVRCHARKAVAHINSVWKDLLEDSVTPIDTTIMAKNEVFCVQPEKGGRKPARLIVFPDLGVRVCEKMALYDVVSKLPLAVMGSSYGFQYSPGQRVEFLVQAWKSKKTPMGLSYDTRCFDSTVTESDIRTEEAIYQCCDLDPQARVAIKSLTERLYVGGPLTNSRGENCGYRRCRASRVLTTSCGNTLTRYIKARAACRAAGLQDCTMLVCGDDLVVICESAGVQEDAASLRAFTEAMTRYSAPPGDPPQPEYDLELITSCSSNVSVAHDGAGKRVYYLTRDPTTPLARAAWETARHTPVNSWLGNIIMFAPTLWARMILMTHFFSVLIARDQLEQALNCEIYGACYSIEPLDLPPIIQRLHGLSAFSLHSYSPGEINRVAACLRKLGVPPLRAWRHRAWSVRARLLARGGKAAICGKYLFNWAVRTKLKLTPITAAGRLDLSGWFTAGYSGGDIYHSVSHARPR

SMILES	IC50 [1] [µM]	IC50 [2] [µM]	EC50 [3] [µM]	EC50 [4] [µM]
CCc1c(-c2ccc3cc(NS(C)(=O)=O)ccc3c2)cc(-c2c[nH]c(=O)[nH]c2=O)cc1C(C)(C)C [compound 36, N-(6-(3-tert-butyl-5-(2,4-dioxo-1,2,3,4-tetrahydropyrimidin-5-yl)-2-ethylphenyl)naphthalen-2-yl)methanesulfonamide]	0.01 to 0.1	0.01 to 0.1	0.1 to 1	0.1 to 1
CCNC(=O)Nc1cc(-c2ccc3cc(NS(C)(=O)=O)ccc3c2)c(OC)c(C(C)(C)C)c1 [compound 22, N-(6-(3-tert-butyl-5-(3-ethylureido)-2-methoxyphenyl)naphthalen-2-yl)methanesulfonamide]	0.1 to 1	0.1 to 1	0.1 to 1	0.1 to 1
COc1c(-c2ccc3cc(NS(C)(=O)=O)ccc3c2)cc(-c2c[nH]c(=O)[nH]c2=O)cc1C(C)(C)C [compound 28, N-(6-(3-tert-butyl-5-(2,4-dioxo-1,2,3,4-tetrahydropyrimidin-5-yl)-2-methoxyphenyl)naphthalen-2-yl)methanesulfonamide]	< 0.01	0.01 to 0.1	≤ 0.01	≤ 0.01
COc1c(-c2ccc3cc(NS(C)(=O)=O)ccc3c2)cc(N2CCCC2=O)cc1C(C)(C)C [compound 29, N-(6-(3-tert-butyl-2-methoxy-5-(2-oxopyrrolidin-1-yl)phenyl)naphthalen-2-yl)methanesulfonamide]	0.01 to 0.1	0.01 to 0.1	0.1 to 1	0.01 to 0.1
COc1c(/C=C/c2ccc(NS(C)(=O)=O)cc2)cc(-c2c[nH]c(=O)[nH]c2=O)cc1C(F)(F)F [compound 50, (E)-N-(4-(5-(2,4-dioxo-1,2,3,4-tetrahydropyrimidin-5-yl)-2-methoxy-3-(trifluoromethyl)styryl)phenyl)methanesulfonamide]	0.01 to 0.1	0.01 to 0.1	0.1 to 1	0.01 to 0.1
COc1c(-c2ccc3c(c2)CCC3O)cc(-c2c[nH]c(=O)[nH]c2=O)cc1C(C)(C)C (stereo not shown) [compound 13, 5-(3-tert-butyl-5-(1-hydroxy-2,3-dihydro-1H-inden-5-yl)-4-methoxyphenyl)pyrimidine-2,4(1H,3H)-dione]	0.1 to 1	0.1 to 1	> 1	> 1
COc1c(-c2ccsc2)cc(-c2c[nH]c(=O)[nH]c2=O)cc1-c1ccc2cc(NS(C)(=O)=O)ccc2c1 [compound 43, N-(6-(5-(2,4-dioxo-1,2,3,4-tetrahydropyrimidin-5-yl)-2-methoxy-3-(thiophen-3-yl)phenyl)naphthalen-2-yl)methanesulfonamide]	< 0.01	< 0.01	0.1 to 1	0.01 to 0.1
COc1c(-c2ccc3cc(NS(C)(=O)=O)ccc3c2)cc(-n2ccccc2=O)cc1C(C)(C)C [compound 30, N-(6-(3-tert-butyl-2-methoxy-5-(2-oxopyridin-1(2H)-yl)phenyl)naphthalen-2-yl)methanesulfonamide]	0.01 to 0.1	0.01 to 0.1	0.1 to 1	0.01 to 0.1
COc1c(-c2ccc3c(CNS(C)(=O)=O)csc3c2)cc(-c2c[nH]c(=O)[nH]c2=O)cc1C(F)(F)F [compound 51, N-((6-(5-(2,4-dioxo-1,2,3,4-tetrahydropyrimidin-5-yl)-2-methoxy-3-(trifluoromethyl)phenyl)benzo[b]thiophen-3-yl)methyl)methanesulfonamide]	< 0.01	0.01 to 0.1	0.1 to 1	0.01 to 0.1
COc1c(-c2ccc3c(c2)CC=C3CNS(C)(=O)=O)cc(-c2cn(S(C)(=O)=O)c(=O)[nH]c2=O)cc1C(F)(F)F [compound 52, N-((6-(2-methoxy-5-(1-(methylsulfonyl)-2,4-dioxo-1,2,3,4-tetrahydropyrimidin-5-yl)-3-(trifluoromethyl)phenyl)-1H-inden-3-yl)methyl)methanesulfonamide]	0.01 to 0.1	0.01 to 0.1	0.1 to 1	≤ 0.01
COc1c(-c2ccc3cc(NS(C)(=O)=O)ccc3c2)cc(NC(C)=O)cc1C(C)(C)C [compound 47, N-(3-tert-butyl-4-methoxy-5-(6-(methylsulfonamido)naphthalen-2-yl)phenyl)acetamide]	0.1 to 1	> 1	> 1	0.1 to 1
COc1c(-c2ccc3cc(NS(C)(=O)=O)ccc3c2)cc(-c2ccc(=O)[nH]c2)cc1C(C)(C)C [compound 10, N-(6-(3-tert-butyl-2-methoxy-5-(6-oxo-1,6-dihydropyridin-3-yl)phenyl)naphthalen-2-yl)methanesulfonamide]	0.1 to 1	> 1	0.1 to 1	> 1
COc1c(-c2ccc3cc(NS(C)(=O)=O)ccc3c2)cc(N2CCCS2(=O)=O)cc1C(C)(C)C [compound 46, N-(6-(3-tert-butyl-5-(2-(1,1-dioxidoisothiazolidin-2-yl))-2-methoxyphenyl)naphthalene-2-yl)methanesulfonamide]	0.01 to 0.1	0.01 to 0.1	0.1 to 1	0.01 to 0.1
COc1c(-c2ccc3cc(NS(C)(=O)=O)ccc3c2)cc(-c2cn(C)c(=O)n(C)c2=O)cc1C(C)(C)C [compound 8, N-(6-(3-tert-butyl-5-(1,3-dimethyl-2,4-dioxo-1,2,3,4-tetrahydropyrimidin-5-yl)-2-methoxyphenyl)naphthalen-2-yl)methanesulfonamide]	0.1 to 1	0.1 to 1	0.1 to 1	0.01 to 0.1
C=Cc1c(-c2ccc3cc(NS(C)(=O)=O)ccc3c2)cc(-c2c[nH]c(=O)[nH]c2=O)cc1C(C)(C)C [compound 35, N-(6-(3-tert-butyl-5-(2,4-dioxo-1,2,3,4-tetrahydropyrimidin-5-yl)-2-vinylphenyl)naphthalen-2-yl)methanesulfonamide]	< 0.01	< 0.01	0.01 to 0.1	≤ 0.01
COc1c(-c2ccc3c(c2)CCC3=O)cc(-c2c[nH]c(=O)[nH]c2=O)cc1C(C)(C)C [compound 12, 5-(3-tert-butyl-4-methoxy-5-(1-oxo-2,3-dihydro-1H-inden-5-yl)phenyl)pyrimidine-2,4(1H,3H)-dione]	0.01 to 0.1	0.01 to 0.1	0.1 to 1	0.1 to 1
COc1c(-c2ccc3cc(NS(C)(=O)=O)ccc3c2)cc(-c2c[nH]c(=O)[nH]c2=O)cc1C(F)(F)F [compound 49, N-(6-(5-(2,4-dioxo-1,2,3,4-tetrahydropyrimidin-5-yl)-2-methoxy-3-(trifluoromethyl)phenyl)naphthalen-2-yl)methanesulfonamide]	< 0.01	0.01 to 0.1	0.01 to 0.1	≤ 0.01
COc1c(-c2ccc3cc(NS(C)(=O)=O)ccc3c2)cc(-c2cn(C)c(=O)[nH]c2=O)cc1C(C)(C)C [compound 7, N-(6-(3-tert-butyl-2-methoxy-5-(1-methyl-2,4-dioxo-1,2,3,4-tetrahydropyrimidin-5-yl)phenyl)naphthalen-2-yl)methanesulfonamide]	< 0.01	0.01 to 0.1	0.01 to 0.1	≤ 0.01
COc1c(-c2ccc3cc(NS(C)(=O)=O)ccc3c2)cc(-c2c[nH]c(=O)[nH]c2=O)cc1-c1ccco1 [compound 40, N-(6-(5-(2,4-dioxo-1,2,3,4-tetrahydropyrimidin-5-yl)-3-(furan-2-yl)-2-methoxyphenyl)naphthalen-2-yl)methanesulfonamide]	< 0.01	< 0.01	0.1 to 1	0.01 to 0.1
COc1c(-c2ccc3cc(NS(C)(=O)=O)ccc3c2)cc(N2C(=O)CN=C2O)cc1C(C)(C)C [compound 15, N-(6-(3-tert-butyl-5-(2-hydroxy-5-oxo-4,5-dihydro-1H-imidazol-1-yl)-2-methoxyphenyl)naphthalen-2-yl)methanesulfonamide]	< 0.01	0.01 to 0.1	0.1 to 1	0.01 to 0.1
COc1c(-c2ccc(/C=N/NS(C)(=O)=O)cc2)cc(N2CCCS2(=O)=O)cc1C(C)(C)C [compound 45, (E)-N′-((3′-tert-butyl-5′-(2-(1,1-dioxidoisothiazolidin-2-yl))-2′ methoxybiphenyl-4-yl)methylene)methanesulfonylhydrazide]	0.1 to 1	0.1 to 1	> 1	0.1 to 1
COc1c(-c2ccc3cc(NS(C)(=O)=O)ccc3c2)cc(NC(=O)CCNC(=O)OC(C)(C)C)cc1C(C)(C)C [compound 23, tert-butyl 3-(3-tert-butyl-4-methoxy-5-(6-(methylsulfonamido)naphthalen-2-yl)phenylamino)-3-oxopropylcarbamate]	0.1 to 1	> 1	> 1	> 1
